# Results taken from patent publication US9694016B2 (Novartis AG, priority 2013, dated 2017).
# Like-named read-outs stand apart in the source and are kept apart here.
# Target: b-Raf (V600E) (Homo sapiens (Human), UniProt P15056, V600E)
# Conditions: read-out: b-Raf IC-50, AlphaScreen
# [1] = 60 min pre-incubation, reaction 3 hours at room temperature
# [2] = 60 min pre-incubation, 3 hours reaction
# Sequence of b-Raf (V600E) (P15056 whole entry V600E): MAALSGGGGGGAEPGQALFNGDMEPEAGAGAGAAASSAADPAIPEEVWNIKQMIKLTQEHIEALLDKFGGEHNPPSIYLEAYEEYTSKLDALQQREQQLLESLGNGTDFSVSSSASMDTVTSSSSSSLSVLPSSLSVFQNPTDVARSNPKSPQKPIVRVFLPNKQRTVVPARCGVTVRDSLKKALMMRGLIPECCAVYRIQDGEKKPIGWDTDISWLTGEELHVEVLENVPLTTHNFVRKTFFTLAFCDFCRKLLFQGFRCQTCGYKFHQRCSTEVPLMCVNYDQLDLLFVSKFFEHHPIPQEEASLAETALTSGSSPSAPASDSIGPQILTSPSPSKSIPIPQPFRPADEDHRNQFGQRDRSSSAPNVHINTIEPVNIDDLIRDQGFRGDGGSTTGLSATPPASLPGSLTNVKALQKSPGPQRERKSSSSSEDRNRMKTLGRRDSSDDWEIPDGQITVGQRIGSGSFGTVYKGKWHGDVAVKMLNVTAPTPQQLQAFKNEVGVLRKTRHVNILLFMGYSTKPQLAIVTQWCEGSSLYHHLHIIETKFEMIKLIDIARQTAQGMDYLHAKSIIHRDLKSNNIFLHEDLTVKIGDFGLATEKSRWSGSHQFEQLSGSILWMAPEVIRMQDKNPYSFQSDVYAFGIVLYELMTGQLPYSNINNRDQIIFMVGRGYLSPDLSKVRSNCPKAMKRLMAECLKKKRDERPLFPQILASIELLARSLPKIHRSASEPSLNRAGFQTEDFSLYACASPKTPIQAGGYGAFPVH
smiles,measurement,setting,value
"Cc1ccc(NC(=O)c2ccnc(C(F)(F)F)c2)cc1-c1cc(NCCO)nc(N2CCOCC2)c1F [Example 1008, N-(3-(3-fluoro-6-((2-hydroxyethyl)amino)-2-morpholinopyridin-4-yl)-4-methylphenyl)-2-(trifluoromethyl)isonicotinamide]",IC50,[1],13.3 nM
"Cc1ccc(NC(=O)c2ccnc(S(C)(=O)=O)c2)cc1-c1cc(N2CCOCC2)nc(N(C)C)n1 [Example 759, N-(3-(2-(dimethylamino)-6-morpholinopyrimidin-4-yl)-4-methylphenyl)-2-(methylsulfonyl)isonicotinamide]",IC50,[2],11.5 nM
"Cc1ccc(NC(=O)c2ccnc(C3(C#N)CC3)c2)cc1-c1cc(N2CCOCC2)c(=O)n(C)c1 [Example 357, 2-(1-cyanocyclopropyl)-N-(4-methyl-3-(1-methyl-5-morpholino-6-oxo-1,6-dihydropyridin-3-yl)phenyl)isonicotinamide]",IC50,"Table 2, 3 hours reaction",3.4 nM
"Cc1ncc(NC(=O)c2ccnc(C(F)(F)F)c2)cc1-c1cnc(OC2CCOCC2)c(N2CCOCC2)c1 [Example 314, N-(2-methyl-5′-morpholino-6′-((tetrahydro-2H-pyran-4-yl)oxy)-[3,3′-bipyridin]-5-yl)-2-(trifluoromethyl)isonicotinamide]",IC50,"Table 2, 3 hours reaction",6 nM
"Cc1ccc(NC(=O)c2ccnc(C3CC3)c2)cc1-c1cc(N2CCOCC2)c(=O)n(C)c1 [Example 354, 2-cyclopropyl-N-(4-methyl-3-(1-methyl-5-morpholino-6-oxo-1,6-dihydropyridin-3-yl)phenyl)isonicotinamide]",IC50,"Table 2, 3 hours reaction",1 nM
"Cc1ccc(NC(=O)c2cc(C(C)(C)C#N)ccn2)cc1-c1cnc(OC(C)C)c(N2CCOCC2)c1 [Example 948, 4-(2-cyanopropan-2-yl)-N-(3-(6-isopropoxy-5-morpholinopyridin-3-yl)-4-methylphenyl)picolinamide]",IC50,[1],2.33 nM
"Cc1ccc(NC(=O)c2ccnc(C(F)F)c2)cc1-c1cc(N2CCOCC2)n2nccc2n1 [Example 805, 2-(difluoromethyl)-N-(4-methyl-3-(7-morpholinopyrazolo[1,5-a]pyrimidin-5-yl)phenyl)isonicotinamide]",IC50,[2],0.4 nM
"Cc1ccc(NC(=O)c2ccnc(C(C)(C)O)c2)cc1-c1cc(NCCO)nc(N2CCOCC2)c1F [Example 1010, N-(3-(3-fluoro-6-((2-hydroxyethyl)amino)-2-morpholinopyridin-4-yl)-4-methylphenyl)-2-(2-hydroxypropan-2-yl)isonicotinamide]",IC50,[1],28.9 nM
"CCOc1nc(-c2cc(NC(=O)c3ccnc(C(C)(F)F)c3)ccc2C)cc(N2CCOCC2)n1 [Example 761, 2-(1,1-difluoroethyl)-N-(3-(2-ethoxy-6-morpholinopyrimidin-4-yl)-4-methylphenyl)isonicotinamide]",IC50,[2],0.9 nM
"Cc1ccc(NC(=O)c2cc(C(F)(F)F)ccn2)cc1-c1cc(N2CCOCC2)c(S(C)(=O)=O)nn1 [Example 933, N-(4-methyl-3-(6-(methylsulfonyl)-5-morpholinopyridazin-3-yl)phenyl)-4-(trifluoromethyl)picolinamide]",IC50,[1],0.78 nM
"Cc1ccc(NC(=O)c2ccnc(C(F)(F)F)c2)cc1-c1cc(N2CCOCC2)c2nccn2c1 [Example 849, N-(4-methyl-3-(8-morpholinoimidazo[1,2-a]pyridin-6-yl)phenyl)-2-(trifluoromethyl)isonicotinamide]",IC50,[1],3.8 nM
"Cc1ccc(NC(=O)c2ccnc(C(C)(C)F)c2)cc1-c1cnc(OCCO)c(N2CCOCC2)c1 [Example 997, 2-(2-fluoropropan-2-yl)-N-(3-(6-(2-hydroxyethoxy)-5-morpholinopyridin-3-yl)-4-methylphenyl)isonicotinamide]",IC50,[1],2 nM
"CCOc1ncc(-c2cc(NC(=O)c3cnnc(C(C)(C)C#N)c3)cnc2C)cc1N1CCOC[C@H]1C [Example 303, (R)-6-(2-cyanopropan-2-yl)-N-(6′-ethoxy-2-methyl-5′-(3-methylmorpholino)-[3,3′-bipyridin]-5-yl)pyridazine-4-carboxamide]",IC50,"Table 2, 3 hours reaction",100 nM
"Cc1ccc(NC(=O)c2cccc(C(F)(F)F)c2)cc1-c1cc(N2CCOCC2)c(=O)n(CC#N)c1 [Example 147, N-(3-(1-(cyanomethyl)-5-morpholino-6-oxo-1,6-dihydropyridin-3-yl)-4-methylphenyl)-3-(trifluoromethyl)benzamide]",IC50,"Table 2, 3 hours reaction",1 nM
"Cc1ccc(NC(=O)c2ccnc(C3(C#N)CC3)c2)cc1-c1cc(NCCO)nc(N2CCOCC2)c1 [Example 1050, 2-(1-cyanocyclopropyl)-N-(3-(2-((2-hydroxyethyl)amino)-6-morpholinopyridin-4-yl)-4-methylphenyl)isonicotinamide]",IC50,[1],1.31 nM
"Cc1ccc(NC(=O)c2ccnc(C(C)(C)C#N)c2)cc1-c1cc(N2CCOCC2)nc(NC(C)(C)CO)n1 [Example 751, 2-(2-cyanopropan-2-yl)-N-(3-(2-((1-hydroxy-2-methylpropan-2-yl)amino)-6-morpholinopyrimidin-4-yl)-4-methylphenyl)isonicotinamide]",IC50,[2],1.4 nM
"Cc1ccc(NC(=O)c2cnnc(C(C)(C)C#N)c2)cc1-c1cc(N2CCOCC2)n2nccc2n1 [Example 795, 6-(2-cyanopropan-2-yl)-N-(4-methyl-3-(7-morpholinopyrazolo[1,5-a]pyrimidin-5-yl)phenyl)pyridazine-4-carboxamide]",IC50,[2],1.8 nM
"Cc1ccc(NC(=O)c2cccc(C(F)(F)F)c2)cc1-c1nc(N2CCOCC2)c2sccc2n1 [Example 829, N-(4-methyl-3-(4-morpholinothieno[3,2-d]pyrimidin-2-yl)phenyl)-3-(trifluoromethyl)benzamide]",IC50,[2],0.2 nM
"Cc1ncc(NC(=O)c2cc(C(F)(F)F)ccn2)cc1-c1cc(N2CCOCC2)c2nccn2n1 [Example 868, N-(6-methyl-5-(8-morpholinoimidazo[1,2-b]pyridazin-6-yl)pyridin-3-yl)-4-(trifluoromethyl)picolinamide]",IC50,[1],1.3 nM
"Cc1ncc(NC(=O)c2cnnc(C3(C#N)CC3)c2)cc1-c1cnc(OC2CCOCC2)c(N2CCOCC2)c1 [Example 944, 6-(1-cyanocyclopropyl)-N-(2-methyl-5′-morpholino-6′-((tetrahydro-2H-pyran-4-yl)oxy)-[3,3′-bipyridin]-5-yl)pyridazine-4-carboxamide]",IC50,[1],3.89 nM
"Cc1ncc(NC(=O)c2cccc(C(F)(F)F)c2)cc1-c1cc(N2CCOCC2)nc(N2CC(O)C2)n1 [Example 768, N-(5-(2-(3-hydroxyazetidin-1-yl)-6-morpholinopyrimidin-4-yl)-6-methylpyridin-3-yl)-3-(trifluoromethyl)benzamide]",IC50,[2],11.1 nM
"Cc1ncc(NC(=O)c2ccnc(C3(C#N)CC3)c2)cc1-c1cnc(Cl)c(N2CCOCC2)c1 [Example 288, N-(6′-chloro-2-methyl-5-morpholino-[3,3′-bipyridin]-5-yl)-2-(1-cyanocyclopropyl)isonicotinamide]",IC50,"Table 2, 3 hours reaction",6 nM
"Cc1ncc(NC(=O)c2cc(C(C)(C)C#N)ccn2)cc1-c1cnc(OC(C)C)c(N2CCOCC2)c1 [Example 958, 4-(2-cyanopropan-2-yl)-N-(6′-isopropoxy-2-methyl-5′-morpholino-[3,3′-bipyridin]-5-yl)picolinamide]",IC50,[1],9.15 nM
"Cc1ncc(NC(=O)c2ccnc(C(C)(F)F)c2)cc1-c1cc(N2CCOCC2)c2nccn2n1 [Example 871, 2-(1,1-difluoroethyl)-N-(6-methyl-5-(8-morpholinoimidazo[1,2-b]pyridazin-6-yl)pyridin-3-yl)isonicotinamide]",IC50,[1],0.6 nM
